Tests used:
[1] = Induction of apoptosis in human MOLM16 cells assessed as late apoptotic cells at 1 uM incubated for 48 hrs by Annexin V and propidium iodide Staining based assay (reference value: 6.77 %); format: functional, MOLM-16
[2] = Antiproliferative activity against p110 unexpressed human MM1.R cells assessed as reduction in cell viability measured after 48 hrs by CCK8 assay; format: functional; conditions: MM.1R
[3] = Half life in Sprague-Dawley rat at 10 mg/kg, po; format: ADME, organism-based; conditions: in vivo
[4] = Induction of apoptosis in human MOLM16 cells assessed as viable cells at 5 uM incubated for 48 hrs by Annexin V and propidium iodide Staining based assay (reference value: 76.3 %); format: functional, MOLM-16; conditions: read-out: Activity
[5] = Induction of cell cycle arrest in human MOLM16 cells assessed as accumulation at subG1 phase at 1 uM incubated for 24 hrs by propidium iodide /RNase staining based flow cytometry(Rvb =4.02 %); format: functional, MOLM-16
[6] = Induction of cell cycle arrest in human MOLM16 cells assessed as accumulation at G2 phase at 2 uM incubated for 24 hrs by propidium iodide /RNase staining based flow cytometry(Rvb =14.7 %); format: functional, MOLM-16
[7] = Induction of apoptosis in human MOLM16 cells assessed as viable cells at 2 uM incubated for 48 hrs by Annexin V and propidium iodide Staining based assay (reference value: 76.3 %); format: functional, MOLM-16; conditions: read-out: Activity
[8] = Induction of cell cycle arrest in human MOLM16 cells assessed as accumulation at G1 phase at 5 uM incubated for 24 hrs by propidium iodide /RNase staining based flow cytometry(Rvb =46.8 %); format: functional, MOLM-16
[9] = Induction of apoptosis in human MOLM16 cells assessed as viable cells at 1 uM incubated for 48 hrs by Annexin V and propidium iodide Staining based assay (reference value: 76.3 %); format: functional, MOLM-16; conditions: read-out: Activity
[10] = Induction of apoptosis in human MOLM16 cells assessed as late apoptotic cells at 2 uM incubated for 48 hrs by Annexin V and propidium iodide Staining based assay (reference value: 6.77 %); format: functional, MOLM-16
[11] = Induction of cell cycle arrest in human MOLM16 cells assessed as accumulation at G2 phase at 1 uM incubated for 24 hrs by propidium iodide /RNase staining based flow cytometry(Rvb =14.7 %); format: functional, MOLM-16
[12] = AUC (0 to infinity) in Sprague-Dawley rat at 10 mg/kg, po; format: ADME, organism-based; design: route oral, time infinity, dose 10 mg/kg; conditions: in vivo
[13] = Induction of apoptosis in human MOLM16 cells assessed as late apoptotic cells at 5 uM incubated for 48 hrs by Annexin V and propidium iodide Staining based assay (reference value: 6.77 %); format: functional, MOLM-16
[14] = Half life in Sprague-Dawley rat at 2 mg/kg, iv; format: ADME, organism-based; conditions: in vivo
[15] = Volume of distribution in steady state in Sprague-Dawley rat at 2 mg/kg, iv; format: ADME, organism-based; conditions: in vivo
[16] = AUC (0 to t) in Sprague-Dawley rat at 10 mg/kg, po; format: ADME, organism-based; design: dose 10 mg/kg; conditions: in vivo
[17] = Toxicity in BALB/c nude mouse xenografted with human MOLM16 cells assessed as change in body weight at 20 to 40 mg/kg, po administered once daily for 14 days; format: organism-based; conditions: in vivo, 336 h, dose 20-40 mg/kg, time 14 day
[18] = Induction of apoptosis in human MOLM16 cells assessed as early apoptotic cells at 5 uM incubated for 48 hrs by Annexin V and propidium iodide Staining based assay (reference value: 16.4 %); format: functional, MOLM-16
[19] = Induction of cell cycle arrest in human MOLM16 cells assessed as accumulation at G1 phase at 1 uM incubated for 24 hrs by propidium iodide /RNase staining based flow cytometry(Rvb =46.8 %); format: functional, MOLM-16
[20] = MRT (0 to infinity) in Sprague-Dawley rat at 2 mg/kg, iv; format: ADME, organism-based; conditions: in vivo
[21] = Induction of cell cycle arrest in human MOLM16 cells assessed as accumulation at G2 phase at 5 uM incubated for 24 hrs by propidium iodide /RNase staining based flow cytometry(Rvb =14.7 %); format: functional, MOLM-16
[22] = Induction of cell cycle arrest in human MOLM16 cells assessed as accumulation at subG1 phase at 5 uM incubated for 24 hrs by propidium iodide /RNase staining based flow cytometry(Rvb =4.02 %); format: functional, MOLM-16
[23] = Induction of cell cycle arrest in human MOLM16 cells assessed as accumulation at subG1 phase at 2 uM incubated for 24 hrs by propidium iodide /RNase staining based flow cytometry(Rvb =4.02 %); format: functional, MOLM-16
[24] = Antitumor activity against human MOLM16 cells xenografted in BALB/c mouse assessed as tumor growth inhibition at 40 mg/kg, po administered daily for 14 days; format: functional, MOLM-16; conditions: 336 h, time 14 day, read-out: TGI
[25] = Antiproliferative activity against human MOLM16 cells assessed as reduction in cell viability measured after 48 hrs by CCK8 assay; format: functional, cell-based, MOLM-16; conditions: MOLM16, 48 h
[26] = Acute toxicity in ICR mouse assessed as damage in spleen at 90 mg/kg, po measured after 7 days by H&E staining based immunohistochemistry; format: organism-based; conditions: in vivo, 168 h, time 7 day
[27] = Induction of cell cycle arrest in human MOLM16 cells assessed as accumulation at S phase at 2 uM incubated for 24 hrs by propidium iodide /RNase staining based flow cytometry(Rvb =31.8 %); format: functional, MOLM-16
[28] = AUC (0 to t) in Sprague-Dawley rat at 2 mg/kg, iv; format: ADME, organism-based; design: dose 2 mg/kg; conditions: in vivo
[29] = Tmax in Sprague-Dawley rat at 10 mg/kg, po; format: ADME, organism-based; conditions: in vivo
[30] = AUC (0 to infinity) in Sprague-Dawley rat at 2 mg/kg, iv; format: ADME, organism-based; design: time infinity, route intravenous, dose 2 mg/kg; conditions: in vivo
[31] = Antitumor activity against human MOLM16 cells xenografted in BALB/c mouse assessed as tumor growth inhibition at 20 mg/kg, po administered daily for 14 days; format: functional, MOLM-16; conditions: 336 h, time 14 day, read-out: TGI
[32] = Induction of cell cycle arrest in human MOLM16 cells assessed as accumulation at S phase at 1 uM incubated for 24 hrs by propidium iodide /RNase staining based flow cytometry(Rvb =31.8 %); format: functional, MOLM-16
[33] = Induction of cell cycle arrest in human MOLM16 cells assessed as accumulation at G1 phase at 2 uM incubated for 24 hrs by propidium iodide /RNase staining based flow cytometry(Rvb =46.8 %); format: functional, MOLM-16
[34] = Acute toxicity in ICR mouse assessed as damage in lung at 90 mg/kg, po measured after 7 days by H&E staining based immunohistochemistry; format: organism-based; conditions: in vivo, 168 h, time 7 day
EOL1 = test: Antiproliferative activity against human EOL1 cells assessed as reduction in cell viability measured after 48 hrs by CCK8 assay; format: functional, cell-based; conditions: EOL1, 48 h
[35] = Acute toxicity in ICR mouse assessed as damage in heart at 90 mg/kg, po measured after 7 days by H&E staining based immunohistochemistry; format: organism-based; conditions: in vivo, 168 h, time 7 day
[36] = Acute toxicity in ICR mouse assessed as damage in liver at 90 mg/kg, po measured after 7 days by H&E staining based immunohistochemistry; format: organism-based; conditions: in vivo, 168 h, time 7 day
[37] = Induction of apoptosis in human MOLM16 cells assessed as early apoptotic cells at 2 uM incubated for 48 hrs by Annexin V and propidium iodide Staining based assay (reference value: 16.4 %); format: functional, MOLM-16
[38] = Acute toxicity in ICR mouse assessed as damage in kidney at 90 mg/kg, po measured after 7 days by H&E staining based immunohistochemistry; format: organism-based; conditions: in vivo, 168 h, time 7 day
[39] = Induction of apoptosis in human MOLM16 cells assessed as necrotic cells at 2 uM incubated for 48 hrs by Annexin V and propidium iodide Staining based assay (reference value: 0.44 %); format: functional, MOLM-16
[40] = Oral bioavailability in Sprague-Dawley rat at 10 mg/kg; format: ADME, organism-based; conditions: in vivo
[41] = Induction of apoptosis in human MOLM16 cells assessed as early apoptotic cells at 1 uM incubated for 48 hrs by Annexin V and propidium iodide Staining based assay (reference value: 16.4 %); format: functional, MOLM-16
[42] = Cmax in Sprague-Dawley rat at 10 mg/kg, po; format: ADME, organism-based; design: route oral, dose 10 mg/kg; conditions: in vivo
[43] = Induction of cell cycle arrest in human MOLM16 cells assessed as accumulation at S phase at 5 uM incubated for 24 hrs by propidium iodide /RNase staining based flow cytometry(Rvb =31.8 %); format: functional, MOLM-16
[44] = Acute toxicity in ICR mouse assessed as survival at 90 mg/kg, po administered for 7 days and observed for 7 days; format: organism-based; conditions: in vivo, 168 h, time 7 day
[45] = Acute toxicity in ICR mouse assessed as behavioral changes at 90 mg/kg, po administered for 7 days and observed for 7 days; format: organism-based; conditions: in vivo, 168 h, time 7 day
[46] = Induction of apoptosis in human MOLM16 cells assessed as necrotic cells at 5 uM incubated for 48 hrs by Annexin V and propidium iodide Staining based assay (reference value: 0.44 %); format: functional, MOLM-16
KG-1 = test: Antiproliferative activity against human KG-1 cells assessed as reduction in cell viability measured after 48 hrs by CCK8 assay; format: functional, cell-based; conditions: KG-1, 48 h
HL-60 = test: Antiproliferative activity against human HL-60 cells assessed as reduction in cell viability measured after 48 hrs by CCK8 assay; format: functional, cell-based; conditions: HL-60, 48 h
[47] = Induction of apoptosis in human MOLM16 cells assessed as necrotic cells at 1 uM incubated for 48 hrs by Annexin V and propidium iodide Staining based assay (reference value: 0.44 %); format: functional, MOLM-16

O=S(=O)(Nc1cc(-c2cnc3[nH]ncc3c2)cnc1Cl)c1ccccc1
Activity [1]: 13.6% | IC50 [2]: 23.1 µM | half-life [3]: 224 min | viability at 5 µM [4]: 10.7% | Activity [5]: 3.5% | Activity [6]: 10.8% | viability at 2 µM [7]: 57.8% | Activity [8]: 49.2% | viability at 1 µM [9]: 69.8% | Activity [10]: 16.1% | Activity [11]: 11.8% | AUC(0-inf) [12]: 9220 ng·h/mL | Activity [13]: 42.6% | half-life [14]: 461 min | Vdss [15]: 2.12 L/kg | AUC(0-t) [16]: 9040 ng·h/mL | Activity [17]: Non-Toxic | Activity [18]: 46.1% | Activity [19]: 54.9% | MRT [20]: 3.12 h | Activity [21]: 8.07% | Activity [22]: 11.1% | Activity [23]: 3.27% | inhibition in vivo at 40 mg/kg [24]: 49% | IC50 [25]: 870 nM | Activity [26]: Non-Toxic | Activity [27]: 28.6% | AUC(0-t) [28]: 10200 ng·h/mL | Tmax [29]: 4 h | AUC(0-inf) [30]: 10500 ng·h/mL | inhibition in vivo at 20 mg/kg [31]: 31% | Activity [32]: 31.1% | Activity [33]: 56.7% | Activity [34]: Non-Toxic | IC50 (EOL1): 2820 nM | Activity [35]: Non-Toxic | Activity [36]: Non-Toxic | Activity [37]: 24.6% | Activity [38]: Non-Toxic | Activity [39]: 1.47% | bioavailability [40]: 17.6% | Activity [41]: 16% | Cmax [42]: 1100 ng/mL | Activity [43]: 30.1% | Activity [44]: Non-Toxic | Activity [45]: Non-Toxic | Activity [46]: 0.6% | IC50 (KG-1): 5.82 µM | IC50 (HL-60): 2250 nM | Activity [47]: 1.6%

From ChEMBL document CHEMBL4840313, “Bioisosteric replacements of the indole moiety for the development of a potent and selective PI3Kδ inhibitor: Design, synthesis and biological evaluation” (Eur J Med Chem, 2021)
